Numbered stars: 1 amine (or outer) side, 2 acyl side, 3 side chain; on linkers, the order of the positions; unused ones are H or OH. Square brackets hold non-standard residues; d marks the D form. Side chains are listed from the residue outwards. Peptide text beside a SMILES is read from it. * marks the point of attachment. C20 diacid = O=C(O)CCCCCCCCCCCCCCCCCCC(=O)*; C18 diacid = O=C(O)CCCCCCCCCCCCCCCCC(=O)*; γGlu = O=C(O)[C@H](CCC(=O)[*:2])N[*:1]; αMeY = C[C@](N)(Cc1ccc(O)cc1)C(=O)O; αMeL = CC(C)C[C@](C)(N)C(=O)O; Orn = NCCC[C@H](N)C(=O)O; AEEA = NCCOCCOCC(=O)O; Aib = CC(C)(N)C(=O)O
How the values were obtained:
human GLP-1R [1] = molecular target: T1, human GLP-1R (Homo sapiens, UniProt P43220); experiment: [125I]-GLP-1 binding (SPA), human GLP-1 receptor; parameters: expressed in transfected cells; crude membranes; settings: read-out: hGLP1R Ki, (nM) (SEM, n)
T1 sequence (P43220 24-463): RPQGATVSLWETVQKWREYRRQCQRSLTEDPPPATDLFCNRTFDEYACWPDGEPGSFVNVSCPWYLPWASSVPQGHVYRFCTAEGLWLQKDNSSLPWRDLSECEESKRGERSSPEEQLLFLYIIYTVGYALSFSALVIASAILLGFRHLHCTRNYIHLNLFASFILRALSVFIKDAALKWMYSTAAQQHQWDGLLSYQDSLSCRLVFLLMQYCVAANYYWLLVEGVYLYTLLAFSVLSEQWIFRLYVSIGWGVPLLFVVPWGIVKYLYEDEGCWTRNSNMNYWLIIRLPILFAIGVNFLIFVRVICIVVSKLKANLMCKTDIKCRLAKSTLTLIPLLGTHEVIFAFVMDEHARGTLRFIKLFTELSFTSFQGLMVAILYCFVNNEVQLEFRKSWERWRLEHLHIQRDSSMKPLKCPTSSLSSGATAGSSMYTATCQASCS
Outline: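 Ki values are geometric means with SEM over independent replicates on different days, derived from IC50s fitted by four-parameter nonlinear regression. The assay used crude cell membranes in HEPES buffer, pH 7.4, containing CaCl2, MgCl2, bacitracin and TWEEN-20.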

human GLP-1R [2] = molecular target: T1, human GLP-1R; experiment: GLP-1R HEK293 cell membrane [35S]GTPγS binding assay; assay type: biochemical; parameters: expressed in transfected cells; host or cells: HEK293 cells expressing human GLP-1R; membranes; settings: HEK293 cell membranes expressing human GLP-1R, [35S]GTPγS binding; read-out: hGLP1R GTPgS Rel EC50 nM (SEM, n)
Outline: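 Membranes from HEK293 cells expressing the receptor incubated with peptide and […] [35S]GTPγS in HEPES pH 7.4 buffer with NaCl, MgCl2, saponin and BSA, 30 min at room temperature. Gαs-bound label captured by anti-Gαs antibody/SPA beads and counted; EC50 from four-parameter logistic fit.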

human GLP-1R [3] = molecular target: T1, human GLP-1R; experiment: GLP-1R CHO cell β-arrestin recruitment assay; assay type: cell-based; parameters: host or cells: CHO-K1 PathHunter cells, assay-ready frozen; settings: for EC50: CHO-K1 cells; for hGLP1R B-Arrestin2 % Top: normalized to GLP-1 maximum control
Outline: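 PathHunter CHO-K1 cells with ProLink-tagged human GLP-1R and enzyme-acceptor-tagged β-arrestin-2 treated with serially diluted peptides in assay buffer containing 0.1% hydrolyzed casein, 90 min at 37 °C.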

human Gcg receptor = molecular target: T2, human Gcg receptor (Homo sapiens, UniProt P47871); experiment: [125I]-Glucagon binding (SPA), human Gcg receptor; settings: read-out: hGLcgR Ki, nM (SEM, n)
T2 construct: expressed in transfected cells; crude membranes
T2 sequence (P47871 26-477): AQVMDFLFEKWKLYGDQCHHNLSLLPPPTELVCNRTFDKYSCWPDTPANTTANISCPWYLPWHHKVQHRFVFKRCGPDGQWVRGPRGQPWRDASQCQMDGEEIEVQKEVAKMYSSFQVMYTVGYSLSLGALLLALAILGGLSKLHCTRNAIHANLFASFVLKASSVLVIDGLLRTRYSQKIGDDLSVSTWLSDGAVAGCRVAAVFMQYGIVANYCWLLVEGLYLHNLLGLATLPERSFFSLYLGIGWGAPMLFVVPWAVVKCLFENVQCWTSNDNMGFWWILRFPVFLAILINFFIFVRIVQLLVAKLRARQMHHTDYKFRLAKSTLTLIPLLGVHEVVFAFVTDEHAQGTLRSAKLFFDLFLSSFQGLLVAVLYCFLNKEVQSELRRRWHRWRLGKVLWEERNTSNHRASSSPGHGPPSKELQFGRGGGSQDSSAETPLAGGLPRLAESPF
Outline: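 Crude membranes from cells expressing the receptor, prepared by hypotonic lysis in 50 mM Tris HCl pH 7.5 with protease inhibitors, homogenization and differential centrifugation, were used in a WGA-bead SPA. Binding buffer: 25 mM HEPES pH 7.4, 2.5 mM CaCl2, 1 mM MgCl2, bacitracin, Tween-20.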

human GIP receptor = molecular target: T3, human GIP receptor (Homo sapiens, UniProt P48546); experiment: [125I]-GIP binding (SPA), human GIP receptor; settings: read-out: hGIPR Ki, nM (SEM, n)
T3 construct: expressed in transfected cells; crude membranes
T3 sequence (P48546 22-466): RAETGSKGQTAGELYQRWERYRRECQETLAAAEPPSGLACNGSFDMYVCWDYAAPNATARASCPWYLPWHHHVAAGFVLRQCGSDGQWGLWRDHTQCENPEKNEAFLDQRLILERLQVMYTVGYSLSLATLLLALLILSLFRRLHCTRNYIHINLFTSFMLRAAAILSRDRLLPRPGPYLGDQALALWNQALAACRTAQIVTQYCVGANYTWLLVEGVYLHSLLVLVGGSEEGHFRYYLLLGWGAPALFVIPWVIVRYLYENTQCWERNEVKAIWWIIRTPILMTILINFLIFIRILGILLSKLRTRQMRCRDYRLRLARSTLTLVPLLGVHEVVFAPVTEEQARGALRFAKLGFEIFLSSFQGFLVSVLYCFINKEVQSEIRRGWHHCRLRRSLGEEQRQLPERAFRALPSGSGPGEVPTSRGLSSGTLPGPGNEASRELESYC

[4] = molecular target: human GLP-1 receptor (GLP-1R) (Homo sapiens, UniProt P43220); experiment: cAMP pharmacological functional assay in presence of casein, hGLP-1R; assay type: cell-based; settings: HEK293 cells expressing hGLP-1R, 0.1% Casein, geometric mean; read-out: hGLP1R cAMP Rel EC50 nM (SEM, n)
Sequence of human GLP-1 receptor (GLP-1R) (P43220 24-463): as the sequence (P43220 24-463) above

[5] = molecular target: T4, gastric inhibitory peptide receptor (GIPR) (Homo sapiens, UniProt P48546); experiment: cAMP pharmacological functional assay in presence of casein, hGIPR; assay type: cell-based; settings: HEK293 cells expressing hGIPR, 0.1% Casein, geometric mean; read-out: hGIPR cAMP Rel EC50 nM (SEM, n)
T4 sequence (P48546 22-466): T3 sequence (P48546 22-466)

[6] = PathHunter β-arrestin-2 recruitment, 0.1% casein, read-out: hGLP1R B-Arrestin2 Rel EC50 uM (SEM, n)
[7] = 0.1% w/v hydrolyzed Casein, read-out: hGLP1R B-Arrestin2 Rel EC50

Row | Compound | Ki (human GLP-1R [1]) | EC50 (human GLP-1R [2]) | EC50 (human GLP-1R [3]; [6]) | hGLP1R B-Arrestin2 % Top (human GLP-1R [3]) | Ki (human Gcg receptor) | Ki (human GIP receptor) | EC50 [4] | EC50 [5] | EC50 (human GLP-1R [3]; [7])
1 | CC[C@H](C)[C@H](NC(=O)[C@H](CC(C)C)NC(=O)[C@H](Cc1ccc(O)cc1)NC(=O)[C@H](CCC(=O)O)NC(=O)[C@@H](NC(=O)[C@H](Cc1ccccc1)NC(=O)[C@H](C)NC(=O)C(C)(C)NC(=O)[C@H](CCC(N)=O)NC(=O)[C@H](C)NC(=O)[C@H](CCCCNC(=O)COCCOCCNC(=O)COCCOCCNC(=O)CC[C@H](NC(=O)CCCCCCCCCCCCCCCCC(=O)O)C(=O)O)NC(=O)[C@H](CCCCN)NC(=O)[C@H](CC(=O)O)NC(=O)[C@H](CC(C)C)NC(=O)[C@H](CC(C)C)NC(=O)[C@@H](NC(=O)[C@H](CO)NC(=O)[C@H](Cc1ccc(O)cc1)NC(=O)[C@H](CC(=O)O)NC(=O)[C@H](CO)NC(=O)[C@@H](NC(=O)[C@H](Cc1ccccc1)NC(=O)[C@@H](NC(=O)CNC(=O)[C@H](CCC(=O)O)NC(=O)C(C)(C)NC(=O)[C@@H](N)Cc1ccc(O)cc1)[C@@H](C)O)[C@@H](C)O)[C@@H](C)CC)[C@@H](C)CC)C(=O)N[C@@H](CCC(=O)O)C(=O)NCC(=O)NCC(=O)N1CCC[C@H]1C(=O)N[C@@H](CO)C(=O)N[C@@H](CO)C(=O)NCC(N)=O [Example 266] (H-Y[Aib]EGTFTSDYSILLDKK([AEEA-AEEA-γGlu-C18 diacid])AQ[Aib]AFIEYLIEGGPSSG-NH2) | 2.01 nM | 0.865 nM | 0.016 µM | 17.1% | 193 nM | 0.0666 nM | 0.0883 nM | 0.0442 nM | –
2 | CC[C@H](C)[C@H](NC(=O)[C@H](CC(C)C)NC(=O)[C@H](Cc1ccc(O)cc1)NC(=O)[C@H](CCC(=O)O)NC(=O)[C@@H](NC(=O)[C@H](Cc1ccccc1)NC(=O)[C@H](C)NC(=O)C(C)(C)NC(=O)[C@H](CCC(N)=O)NC(=O)[C@H](C)NC(=O)[C@H](CCCCNC(=O)COCCOCCNC(=O)COCCOCCNC(=O)CC[C@H](NC(=O)CCCCCCCCCCCCCCCCCCC(=O)O)C(=O)O)NC(=O)[C@H](CCC(=O)O)NC(=O)[C@H](CC(=O)O)NC(=O)[C@H](CC(C)C)NC(=O)[C@H](CC(C)C)NC(=O)[C@@H](NC(=O)[C@H](CO)NC(=O)[C@H](Cc1ccc(O)cc1)NC(=O)[C@H](CC(=O)O)NC(=O)[C@H](CO)NC(=O)[C@@H](NC(=O)[C@H](Cc1ccccc1)NC(=O)[C@@H](NC(=O)CNC(=O)[C@H](CCC(=O)O)NC(=O)C(C)(C)NC(=O)[C@@H](N)Cc1ccc(O)cc1)[C@@H](C)O)[C@@H](C)O)[C@@H](C)CC)[C@@H](C)CC)C(=O)N[C@@H](C)C(=O)NCC(=O)NCC(=O)N1CCC[C@H]1C(=O)N[C@@H](CO)C(=O)N[C@@H](CO)C(=O)NCC(=O)N[C@@H](C)C(=O)N1CCC[C@H]1C(=O)N1CCC[C@H]1C(=O)N1CCC[C@H]1C(=O)N[C@@H](CO)C(N)=O [Example 330] (H-Y[Aib]EGTFTSDYSILLDEK([AEEA-AEEA-γGlu-C20 diacid])AQ[Aib]AFIEYLIAGGPSSGAPPPS-NH2) | – | 1.05 nM | > 10.9 µM | – | > 1050 nM | 0.114 nM | 0.199 nM | 0.0919 nM | > 10.9 µM
3 | CC[C@H](C)[C@H](NC(=O)[C@H](CC(C)C)NC(=O)[C@](C)(Cc1ccc(O)cc1)NC(=O)[C@H](CCC(=O)O)NC(=O)[C@@H](NC(=O)[C@H](Cc1ccccc1)NC(=O)[C@H](CCC(=O)O)NC(=O)C(C)(C)NC(=O)[C@H](CCC(N)=O)NC(=O)[C@H](C)NC(=O)[C@H](CCCCNC(=O)COCCOCCNC(=O)COCCOCCNC(=O)CC[C@H](NC(=O)CCCCCCCCCCCCCCCCCCC(=O)O)C(=O)O)NC(=O)[C@H](CCCN)NC(=O)[C@H](CC(=O)O)NC(=O)[C@H](CC(C)C)NC(=O)[C@](C)(CC(C)C)NC(=O)[C@@H](NC(=O)[C@H](CO)NC(=O)[C@H](Cc1ccc(O)cc1)NC(=O)[C@H](CC(=O)O)NC(=O)[C@H](CO)NC(=O)[C@@H](NC(=O)[C@H](Cc1ccccc1)NC(=O)[C@@H](NC(=O)CNC(=O)[C@H](CCC(=O)O)NC(=O)C(C)(C)NC(=O)[C@H](N)Cc1ccc(O)cc1)[C@@H](C)O)[C@@H](C)O)[C@@H](C)CC)[C@@H](C)CC)C(=O)N[C@@H](CCC(=O)O)C(=O)NCC(=O)NCC(=O)N1CCC[C@H]1C(=O)N[C@@H](CO)C(=O)N[C@@H](CO)C(=O)NCC(=O)N[C@@H](C)C(=O)N1CCC[C@H]1C(=O)N1CCC[C@H]1C(=O)N1CCC[C@H]1C(=O)N[C@@H](CO)C(N)=O [Example 380] (H-[dY][Aib]EGTFTSDYSI[αMeL]LD[Orn]K([AEEA-AEEA-γGlu-C20 diacid])AQ[Aib]EFIE[αMeY]LIEGGPSSGAPPPS-NH2) | – | 0.188 nM | 0.0137 µM | 35% | – | – | 0.236 nM | 0.142 nM | –

Second part, led by results:

Row | Ki (human GLP-1R [1]) | EC50 (human GLP-1R [2]) | EC50 (human GLP-1R [3]; [6]) | hGLP1R B-Arrestin2 % Top (human GLP-1R [3]) | Ki (human Gcg receptor) | Ki (human GIP receptor) | EC50 [4] | EC50 [5] | Compound | EC50 (human GLP-1R [3]; [7])
4 | 1.57 nM | 0.867 nM | 0.00901 µM | 16.5% | 349 nM | 0.0628 nM | 0.054 nM | 0.108 nM | CC[C@H](C)[C@H](NC(=O)[C@H](CC(C)C)NC(=O)[C@H](Cc1ccc(O)cc1)NC(=O)[C@H](CCC(=O)O)NC(=O)[C@@H](NC(=O)[C@H](Cc1ccccc1)NC(=O)[C@H](C)NC(=O)C(C)(C)NC(=O)[C@H](CCC(N)=O)NC(=O)[C@H](C)NC(=O)[C@H](CCCCNC(=O)COCCOCCNC(=O)COCCOCCNC(=O)CC[C@H](NC(=O)CCCCCCCCCCCCCCCCC(=O)O)C(=O)O)NC(=O)[C@H](CCCCN)NC(=O)[C@H](CC(=O)O)NC(=O)[C@H](CC(C)C)NC(=O)[C@H](CC(C)C)NC(=O)[C@@H](NC(=O)[C@H](CO)NC(=O)[C@H](Cc1ccc(O)cc1)NC(=O)[C@H](CC(=O)O)NC(=O)[C@H](CO)NC(=O)[C@@H](NC(=O)[C@H](Cc1ccccc1)NC(=O)[C@@H](NC(=O)CNC(=O)[C@H](CCC(=O)O)NC(=O)C(C)(C)NC(=O)[C@@H](N)Cc1ccc(O)cc1)[C@@H](C)O)[C@@H](C)O)[C@@H](C)CC)[C@@H](C)CC)C(=O)N[C@@H](CCC(=O)O)C(=O)NCC(=O)NCC(N)=O [Example 267] (H-Y[Aib]EGTFTSDYSILLDKK([AEEA-AEEA-γGlu-C18 diacid])AQ[Aib]AFIEYLIEGG-NH2) | –
5 | 1.22 nM | 0.651 nM | > 12 µM | – | 550 nM | 0.0353 nM | 0.0435 nM | 0.0464 nM | CC[C@H](C)[C@H](NC(=O)[C@H](CC(C)C)NC(=O)[C@H](Cc1ccc(O)cc1)NC(=O)[C@H](CCC(=O)O)NC(=O)[C@@H](NC(=O)[C@H](Cc1ccccc1)NC(=O)[C@H](C)NC(=O)C(C)(C)NC(=O)[C@H](CCC(N)=O)NC(=O)[C@H](C)NC(=O)[C@H](CCCCNC(=O)COCCOCCNC(=O)COCCOCCNC(=O)CC[C@H](NC(=O)CCCCCCCCCCCCCCCCC(=O)O)C(=O)O)NC(=O)[C@H](CCCCN)NC(=O)[C@H](CC(=O)O)NC(=O)[C@H](CC(C)C)NC(=O)[C@H](CC(C)C)NC(=O)[C@@H](NC(=O)[C@H](CO)NC(=O)[C@H](Cc1ccc(O)cc1)NC(=O)[C@H](CC(=O)O)NC(=O)[C@H](CO)NC(=O)[C@@H](NC(=O)[C@H](Cc1ccccc1)NC(=O)[C@@H](NC(=O)CNC(=O)[C@H](CCC(=O)O)NC(=O)C(C)(C)NC(=O)[C@@H](N)Cc1ccc(O)cc1)[C@@H](C)O)[C@@H](C)O)[C@@H](C)CC)[C@@H](C)CC)C(=O)N[C@@H](C)C(=O)NCC(=O)NCC(=O)N1CCC[C@H]1C(=O)N[C@@H](CO)C(=O)N[C@@H](CO)C(=O)NCC(N)=O [Example 272] (H-Y[Aib]EGTFTSDYSILLDKK([AEEA-AEEA-γGlu-C18 diacid])AQ[Aib]AFIEYLIAGGPSSG-NH2) | > 12 µM

— patent US12252524B2, “GIP/GLP1 co-agonist compounds” (Eli Lilly and Company, priority 2018, dated 2025)
